ChEMBL document CHEMBL2016493, “Design, synthesis, synergistic antimicrobial activity and cytotoxicity of 4-aryl substituted 3,4-dihydropyrimidinones of curcumin” (Bioorg Med Chem Lett, 2012)
Calls of active or inactive are those of the source. No cut-off for these calls is given here.

Experiments:
[1] = system: Burkholderia pseudomallei; assay: Antibacterial activity against Burkholderia pseudomallei NTCC 10274 at 40 uM/ml after 24 hrs by kirby-bauer method; format: functional; conditions: for zone of inhibition at 40 µM: NTCC 10274, 24 h, read-out: IZ
Pseudomonas aeruginosa [2] = assay: Antibacterial activity against Pseudomonas aeruginosa ATCC 15499 at 20 uM/ml after 24 hrs by kirby-bauer method; format: functional; conditions: for zone of inhibition at 20 µM: ATCC 15499, 24 h, read-out: IZ
Escherichia coli [3] = assay: Antibacterial activity against Escherichia coli ATCC 35218 at 20 uM/ml after 24 hrs by kirby-bauer method; format: functional
Aspergillus niger [4] = assay: Antifungal activity against Aspergillus niger MTCC 1108 at 80 uM/ml after 48 hrs by paper disc diffusion method; format: functional; conditions: MTCC 1108, 48 h, read-out: IZ
Staphylococcus aureus = assay: Antibacterial activity against Staphylococcus aureus ATCC 11632 at 160 uM/ml after 24 hrs by kirby-bauer method; format: functional
Aspergillus flavus [5] = assay: Antifungal activity against Aspergillus flavus MTCC 1021 at 160 uM/ml after 48 hrs by paper disc diffusion method; format: functional
Escherichia coli [6] = assay: Antibacterial activity against Escherichia coli ATCC 35218 at 160 uM/ml after 24 hrs by kirby-bauer method; format: functional; conditions: ATCC 35218, 24 h, read-out: IZ
Aspergillus flavus [7] = assay: Antifungal activity against Aspergillus flavus MTCC 1021 at 20 uM/ml after 48 hrs by paper disc diffusion method; format: functional
Curvularia lunata [8] = assay: Antifungal activity against Curvularia lunata MTCC 581 at 20 uM/ml after 48 hrs by paper disc diffusion method; format: functional; conditions: MTCC 581, 48 h, read-out: IZ
Aspergillus niger [9] = assay: Antifungal activity against Aspergillus niger MTCC 1108 at 160 uM/ml after 48 hrs by paper disc diffusion method; format: functional; conditions: MTCC 1108, 48 h, read-out: IZ
[10] = system: Burkholderia pseudomallei; assay: Antibacterial activity against Burkholderia pseudomallei NTCC 10274 at 20 uM/ml after 24 hrs by kirby-bauer method; format: functional
Curvularia lunata [11] = assay: Antifungal activity against Curvularia lunata MTCC 581 at 40 uM/ml after 48 hrs by paper disc diffusion method; format: functional; conditions: MTCC 581, 48 h, read-out: IZ
Aspergillus niger [12] = assay: Antifungal activity against Aspergillus niger MTCC 1108 at 20 uM/ml after 48 hrs by paper disc diffusion method; format: functional
Trichoderma viride [13] = assay: Antifungal activity against Trichoderma viride MTCC 1107 at 20 uM/ml after 48 hrs by paper disc diffusion method; format: functional; conditions: for zone of inhibition at 20 µM: MTCC 1107, 48 h, read-out: IZ
Pseudomonas aeruginosa [14] = assay: Antibacterial activity against Pseudomonas aeruginosa ATCC 15499 at 40 uM/ml after 24 hrs by kirby-bauer method; format: functional; conditions: for zone of inhibition at 40 µM: ATCC 15499, 24 h, read-out: IZ
Trichoderma viride [15] = assay: Antifungal activity against Trichoderma viride MTCC 1107 at 160 uM/ml after 48 hrs by paper disc diffusion method; format: functional; conditions: MTCC 1107, 48 h, read-out: IZ
Curvularia lunata [16] = assay: Antifungal activity against Curvularia lunata MTCC 581 at 160 uM/ml after 48 hrs by paper disc diffusion method; format: functional; conditions: MTCC 581, 48 h, read-out: IZ
[17] = system: Burkholderia pseudomallei; assay: Antibacterial activity against Burkholderia pseudomallei NTCC 10274 at 80 uM/ml after 24 hrs by kirby-bauer method; format: functional; conditions: NTCC 10274, 24 h, read-out: IZ
QG-56 = assay: Cytotoxicity against human QG56 cells after 48 hrs by MTT assay; format: functional, cell-based
Aspergillus flavus [18] = assay: Antifungal activity against Aspergillus flavus MTCC 1021 at 80 uM/ml after 48 hrs by paper disc diffusion method; format: functional
Escherichia coli [19] = assay: Antibacterial activity against Escherichia coli ATCC 35218 at 80 uM/ml after 24 hrs by kirby-bauer method; format: functional; conditions: ATCC 35218, 24 h, read-out: IZ
Aspergillus niger [20] = assay: Antifungal activity against Aspergillus niger MTCC 1108 at 40 uM/ml after 48 hrs by paper disc diffusion method; format: functional
Trichoderma viride [21] = assay: Antifungal activity against Trichoderma viride MTCC 1107 at 40 uM/ml after 48 hrs by paper disc diffusion method; format: functional; conditions: for zone of inhibition: MTCC 1107, 48 h, read-out: IZ
Escherichia coli [22] = assay: Antibacterial activity against Escherichia coli ATCC 35218 at 40 uM/ml after 24 hrs by kirby-bauer method; format: functional
Aspergillus flavus [23] = assay: Antifungal activity against Aspergillus flavus MTCC 1021 at 40 uM/ml after 48 hrs by paper disc diffusion method; format: functional
Curvularia lunata [24] = assay: Antifungal activity against Curvularia lunata MTCC 581 at 80 uM/ml after 48 hrs by paper disc diffusion method; format: functional; conditions: MTCC 581, 48 h, read-out: IZ
Pseudomonas aeruginosa [25] = assay: Antibacterial activity against Pseudomonas aeruginosa ATCC 15499 at 80 uM/ml after 24 hrs by kirby-bauer method; format: functional; conditions: for zone of inhibition at 80 µM: ATCC 15499, 24 h, read-out: IZ
Pseudomonas aeruginosa [26] = assay: Antibacterial activity against Pseudomonas aeruginosa ATCC 15499 at 160 uM/ml after 24 hrs by kirby-bauer method; format: functional; conditions: ATCC 15499, 24 h, read-out: IZ
Salmonella typhimurium [27] = assay: Antibacterial activity against Salmonella typhimurium ATCC 23564 at 160 uM/ml after 24 hrs by kirby-bauer method; format: functional; conditions: for inhibition zone (IZ): Salmonella enterica subsp. enterica serovar Typhimurium
Trichoderma viride [28] = assay: Antifungal activity against Trichoderma viride MTCC 1107 at 80 uM/ml after 48 hrs by paper disc diffusion method; format: functional; conditions: MTCC 1107, 48 h, read-out: IZ
[29] = system: Burkholderia pseudomallei; assay: Antibacterial activity against Burkholderia pseudomallei NTCC 10274 at 160 uM/ml after 24 hrs by kirby-bauer method; format: functional; conditions: NTCC 10274, 24 h, read-out: IZ
Salmonella typhimurium [30] = assay: Antibacterial activity against Salmonella typhimurium ATCC 23564 at 80 uM/ml after 24 hrs by kirby-bauer method; format: functional, Salmonella enterica subsp. enterica serovar Typhimurium; conditions: Salmonella enterica, ATCC 23564, 24 h; read-out: IZ
Salmonella typhimurium [31] = assay: Antibacterial activity against Salmonella typhimurium ATCC 23564 at 40 uM/ml after 24 hrs by kirby-bauer method; format: functional; conditions: Salmonella enterica subsp. enterica serovar Typhimurium
Salmonella typhimurium [32] = assay: Antibacterial activity against Salmonella typhimurium ATCC 23564 at 20 uM/ml after 24 hrs by kirby-bauer method; format: functional; conditions: Salmonella enterica subsp. enterica serovar Typhimurium

| SMILES | zone of inhibition at 40 µM [1] [mm] | zone of inhibition at 20 µM (Pseudomonas aeruginosa [2]) [mm] | zone of inhibition at 80 µM (Aspergillus niger [4]) [mm] | inhibition zone (IZ) (Staphylococcus aureus) | zone of inhibition at 160 µM (Escherichia coli [6]) [mm] | zone of inhibition at 20 µM (Curvularia lunata [8]) [mm] | IC50 (HCT-116) [uM/ml] | zone of inhibition at 160 µM (Aspergillus niger [9]) [mm] | zone of inhibition at 40 µM (Curvularia lunata [11]) [mm] | inhibition zone (IZ) (Aspergillus niger [12]) | zone of inhibition at 160 µM (Trichoderma viride [15]) [mm] | IC50 (HepG2) [uM/ml] | zone of inhibition at 160 µM (Curvularia lunata [16]) [mm] | zone of inhibition at 80 µM [17] [mm] | IC50 (QG-56) [uM/ml] | zone of inhibition at 80 µM (Escherichia coli [19]) [mm] | zone of inhibition at 80 µM (Curvularia lunata [24]) [mm] | zone of inhibition at 160 µM (Pseudomonas aeruginosa [26]) [mm] | zone of inhibition at 80 µM (Trichoderma viride [28]) [mm] | zone of inhibition at 160 µM [29] [mm] | also measured |
| --- | --- | --- | --- | --- | --- | --- | --- | --- | --- | --- | --- | --- | --- | --- | --- | --- | --- | --- | --- | --- | --- |
| COc1cc(/C=C/C(=O)C2=C(/C=C/c3ccc(O)c(OC)c3)NC(=O)NC2c2ccccc2O)ccc1O (stereo unspecified) | 11 | 18 | 11 | inactive | 22 | 17 | 100 | 13 | 20 | inactive | 11 | 100 | 23 | 13 | 100 | 19 | 21 | 24 | 9 | 19 | zone of inhibition at 20 µM (Escherichia coli [3]; ATCC 35218, 24 h, read-out: IZ): 15 mm; zone of inhibition at 160 µM (Aspergillus flavus [5]; MTCC 1021, 48 h, read-out: IZ): 9 mm; inhibition zone (IZ) (Aspergillus flavus [7]): inactive; inhibition zone (IZ) [10]: inactive; inhibition zone (IZ) (Trichoderma viride [13]): inactive; zone of inhibition at 40 µM (Pseudomonas aeruginosa [14]): 19 mm; inhibition zone (IZ) (Aspergillus flavus [18]): inactive; zone of inhibition at 40 µM (Aspergillus niger [20]; MTCC 1108, 48 h, read-out: IZ): 9 mm; inhibition zone (IZ) (Trichoderma viride [21]): inactive; zone of inhibition at 40 µM (Escherichia coli [22]; ATCC 35218, 24 h, read-out: IZ): 18 mm; inhibition zone (IZ) (Aspergillus flavus [23]): inactive; zone of inhibition at 80 µM (Pseudomonas aeruginosa [25]): 21 mm; inhibition zone (IZ) (Salmonella typhimurium [27]): inactive |
| COc1ccc(C2NC(=O)NC(/C=C/c3ccc(O)c(OC)c3)=C2C(=O)/C=C/c2ccc(O)c(OC)c2)cc1 (stereo unspecified) | 15 | 13 | 9 | inactive | 12 | 11 | 100 | 11 | 14 | inactive | 19 | 50 | 17 | 19 | 50 | 9 | 16 | 23 | 17 | 23 | inhibition zone (IZ) (Escherichia coli [3]): inactive; inhibition zone (IZ) (Aspergillus flavus [5]): inactive; zone of inhibition at 20 µM ([10]; NTCC 10274, 24 h, read-out: IZ): 11 mm; zone of inhibition at 20 µM (Trichoderma viride [13]): 14 mm; zone of inhibition at 40 µM (Pseudomonas aeruginosa [14]): 19 mm; inhibition zone (IZ) (Aspergillus niger [20]): inactive; zone of inhibition (Trichoderma viride [21]): 16 mm; inhibition zone (IZ) (Escherichia coli [22]): inactive; zone of inhibition at 80 µM (Pseudomonas aeruginosa [25]): 21 mm; inhibition zone (IZ) (Salmonella typhimurium [27]): inactive |
| COc1cc(/C=C/C(=O)C2=C(/C=C/c3ccc(O)c(OC)c3)NC(=O)NC2c2ccc(C)cc2)ccc1O (stereo unspecified) | – | – | 9 | inactive | 11 | 12 | 50 | 12 | 16 | inactive | 18 | 50 | 22 | 9 | 100 | 9 | 18 | 10 | 16 | 10 | inhibition zone (IZ) [1]: inactive; inhibition zone (IZ) (Pseudomonas aeruginosa [2]): inactive; inhibition zone (IZ) (Escherichia coli [3]): inactive; inhibition zone (IZ) (Aspergillus flavus [5]): inactive; inhibition zone (IZ) [10]: inactive; zone of inhibition at 20 µM (Trichoderma viride [13]): 12 mm; zone of inhibition at 80 µM (Salmonella typhimurium [30]): 9 mm; inhibition zone (IZ) (Pseudomonas aeruginosa [14]): inactive; inhibition zone (IZ) (Aspergillus niger [20]): inactive; zone of inhibition (Trichoderma viride [21]): 15 mm; inhibition zone (IZ) (Salmonella typhimurium [31]): inactive; inhibition zone (IZ) (Escherichia coli [22]): inactive; inhibition zone (IZ) (Pseudomonas aeruginosa [25]): inactive; zone of inhibition at 160 µM (Salmonella typhimurium [27]; Salmonella enterica, ATCC 23564, 24 h, read-out: IZ): 11 mm; inhibition zone (IZ) (Salmonella typhimurium [32]): inactive |
